Data set [1] can be described thus: ORACFL test (Oxygen Radical Absorbance Capacity) using fluorescein/AAPH. The note with it: compounds at 10 μM; for ORACFL: mean ± SEM of three independent experiments in triplicate. Type of data set: physicochemical. How it is done: The antioxidant properties of the compounds according to the invention were evaluated using a ORACFL test using fluorescein (J. Agric. Food Chem., 2004 52, 48-54; J. Agric. Food Chem., 2005, 53, 4290-4302). As such, peroxide radicals, generated in the presence of AAPH (2,2′-azobis(2-methylpropionamidine)dihydrochloride) at 37° C., react with this fluorescent sensor in order to give a non-fluorescent product. The protective effect of the test compounds can then be determined by following the decay curve of the fluorescence of the fluorescein over time and be measuring the area under the curve (AUC) of the sample in relation to that of a control corresponding to an absence of antioxidant.
The trolox (6-hydroxy-2,5,7,8-tetramethylchroman-2-carboxylic acid), a water-soluble analogue of vitamin E, is used as a standard for calculating the antioxidant capacity (ORACFL) of the compounds tested at 10 μM, expressed in […] of tested compound. This value is as such obtained using the straight-line calibration equation giving the area under the curve according to the various concentrations of trolox (Bioorg. Med. Chem., 2015, 23, 1135-1148) (FIG. 11).
A solution of fluorescein (FL) (12 nM; 150 μL) is introduced into a black 96-well plate (Dutscher, Brumath, France). The compounds to be tested (1-20 μM; 25 μL) or trolox (1-50 μM; 25 μL) dissolved in D-PBS are added into each well. After equilibration of the plate during an incubation at 37° C. for a minimum of 30 min, the radical reactions are initiated using a solution of AAPH prepared extemporaneously (30 mM; 25 μL). The fluorescence (λEx: 485 nm; λEm: 520 nm) is measured every 90 seconds for 60 cycles using a temperature-controlled Tecan Infinite® 200 PRO microplate reader (measurements taken in triplicates during three independent experiments).

The subject of data set [2] is human fibroblasts (MRC-5). Nature of the data set: Cytotoxicity, cellular viability (CCK-8/WST-8) on MRC-5. Type of data set: cell-based. As for the experimental part:
(§1) The cellular viability is evaluated by a colorimetric method based on the detection of the conversion of a salt of the tetrazolium (WST-8) by the metabolically active cells (CCK-8 kit, Sigma, Lyons, France) (Molecules, 2014, 19(8), 12048-12064; J. Pharmacol. Toxicol. Methods., 2007, 56(1), 58-62). Living cells have mitochondrial dehydrogenases that reduce the WST-8 (2-(2-methoxy-4-nitrophenyl)-3-(4-nitrophenyl)-5-(2,4-disulfophenyl)-2H-tetrazolium), monosodium salt) to formazan of an orange colour, which dissolves directly in the culture medium in the presence of 1-Methoxy PMS (1-methoxy-5-methylphenazinium methyl sulphate). After an incubation for 1 h at 37° C., the absorbance of the formazan is measured at 450 nm. The absorbance is directly proportional to the number of living cells.
(§2) Briefly, the cells are inoculated in 96-well plates at a rate of 5.10^3 cells per well in 100 μL of the suitable medium until subconfluence. The cells are then washed with D-PBS, then treated with various concentrations (10 μM, 100 μM) of the products to be tested in triplicates for 24 and 48 h. A positive control is carried out with 10% of DMSO. The CCK-8 (10 μL) solution is then added to each well for an incubation for 1 h at 37° C. The measurement of the absorbance is taken at 450 nm using a Perkin Elmer 2103 Envision® microplate reader.
(§3) The viability of the cells is expressed as a % of the control (untreated cells) by the mean±standard deviation of triplicates forming a representative experiment or of three independent experiments conducted in triplicate.
In general terms: Tetrazolium assays rely on reduction of a dye to a coloured formazan, in cell work by metabolically active cells.

The subject of data set [3] is murine endothelial brain cells (bEnd.3). The data set can be described thus: Cytotoxicity, cellular viability (CCK-8/WST-8) on bEnd.3. Type of data set: cell-based. As for the experimental part:
as §1, §2, §3

Data set [4] has as its system rat pheochromocytoma cells, treated as neuronal cells (PC12). Nature of the data set: Cytotoxicity, cellular viability (CCK-8/WST-8) on PC12. It counts as cell-based. As for the experimental part:
as §1, §2, §3

A short description of data set [5]: Formation of adducts with MGO, kinetic study by HPLC. Type of data set: physicochemical. The note with it: compound 10 mM, MGO 20 mM, 37° C., after 15 min of incubation. As for the experimental part:
The compounds to be tested are incubated at 37° C. in the presence of MGO or of MDA. A kinetic study aiming to report on the formation of adducts with the MGO or MDA is then carried out via HPLC analysis.
The compounds to be tested (30 μmol) are dissolved in PBS (1.5 mL). An aqueous solution (qsp 1.25 mL) of MGO at 40% in water (250 μmol) is then prepared and in parallel, MDA bis-(diOEt)-acetal (250 μmol) is set to react with a solution of HCl 1N (2 eq) in water (qsp 1.25 mL) for 1 h at room temperature. An aqueous solution of NaOH 0.05N is also required to neutralise the reaction medium (5 mL).
The solution of the compound to be tested (625 μL—final concentration in the medium=10 mM) is then set to react with the solution of MGO or of MDA prepared extemporaneously (125 μL—final concentration in the medium=20 mM) in the presence of NaOH 0.05 N (0.5 mL).
The various mixtures are then incubated in the oven at 37° C. for 24 h.
A sampling of each mixture (100 μL) is taken at regular intervals of time (0.25; 0.5; 1; 5 and 24 h) and stored at −20° C. in order to stop the reaction. After dilution in a MeCN/H2O 98:2 mixture at room temperature, the HPLC analysis is carried out on a Shimadzu LCMS-2020 apparatus (UV chromatogram at 190 nm and mass spectrum in positive electrospray ionisation mode (ESI+)) after separation on the Waters Acquity column using a gradient of solvents H2O+HCOOH 0.1%/MeCN+HCOOH 0.1% (98/2 for 2 min, then 55/45 for 2 min and 45/55 for 3 min) with a flow rate of 0.3 mL/min at 40° C. and an injection of volume of 1 (“detection mode: scan, interface voltage: tuning file, DL voltage: 100 V, Q-array DC: 40 V, Q-array RF: 40 V”). A blank is first of all carried out using a solution containing the reaction medium without scavenger. Then, a free scavenger solution at 10 mM is used as a negative control and the carnosine as a reference of the literature. The proportion of adducts formed with the MGO or MDA (generally, tR=4.1 to 6.8 min) is then measured in relation to the quantity of remaining free scavenger (generally, tR=0.8 to 4.6 min) after measurement of the area under the curve of the corresponding peaks on the UV spectrum (measurements taken for a representative sample).

Data set [6] concerns low-density lipoproteins (LDLs). The data set can be described thus: Antiradical properties: inhibition of lipid peroxidation in AAPH-induced oxidation of LDLs. Type of data set: biochemical. The note with it: high concentration (100 μM). As for the experimental part:
The antiradical properties of the various compounds are determined by inhibition of the lipid peroxidation in the in vitro model of the oxidation of the low-density lipoproteins (LDLs) (Free Radic. Biol. Med., 1992, 13, 341-390). The lipid peroxidation is initiated by the attack by free radicals of a double bond of a polyunsaturated fatty acid present in the LDLs. […] Once initiated, the oxidation of the LDLs is a chain reaction of lipid peroxidation generated by the free radicals. The oxidation in vitro of the LDLs is induced at 37° C. by the adding of the water-soluble compound 2,2′-Azobis(2-methylpropionamidine)dihydrochloride (AAPH), which generates free radicals during the spontaneous thermal breakdown thereof
Briefly, the oxidation, carried out in a 96-well plate, is induced at 37° C. by adding 20 μL of a solution of AAPH at 2 mM in D-PBS at 160 μL of LDL (100 μg/mL) in the presence or absence of 20 μL of the various solutions of the compounds to be tested dissolved in D-PBS (0.1 to 100 μM in final concentrations). The LDLs alone without adding AAPH are used as a negative control. Each oxidation is carried out in double. During the oxidation, the formation of the conjugated dienes is followed by the measurement of the optical density at 234 nm every 10 minutes for 8 h at 37° C. using a temperature-controlled TECAN spectrophotometer. The vitamin E (α-tocopherol) which is a powerful antioxidant recognised in this in vitro model is used as a reference molecule (J. Nutr. Biochem., 2012, 23, 845-51).

Where [7] appears, read: MRC-5, 10 μM, 24 h of treatment.
Where [8] appears, read: MRC-5, 10 μM, 48 h of treatment.
Setting [9] is: MRC-5, 100 μM, 24 h of treatment.
Setting [10] is: MRC-5, 100 μM, 48 h of treatment.

Structures are written as SMILES.

Turning to `NCCC(=O)N[C@@H](Cc1cnc[nH]1)C(=O)O` [Carnosine, carnosine, reference compound], in data set [1], the “antioxidant capacity (ORACFL), in words” value is given as “very low activity” and the ORACFL worked out at 0.08 ± 0.05 μmol TE/μmol.

Molecule `NCC(N)CC(=O)N1CCN(C(=O)CCn2cccc(O)c2=O)CC1` (stereo not shown) [Compound 37d, 1-(3-(4-(3,4-diaminobutanoyl)piperazin-1-yl)-3-oxopropyl)-3-hydroxypyridin-2(1H)-one] gave an ORACFL in data set [1] of 1.21 ± 0.07 μmol TE/μmol.

On to `NCC(N)CCC(=O)N1CCN(C(=O)c2cc(O)c(O)c(O)c2)CC1` (stereo not shown) [Compound 30a, 4,5-diamino-1-(4-(3,4,5-trihydroxybenzoyl)piperazin-1-yl)pentan-1-one], for which the “viability of the cells as a percentage of the untreated cells” value in data set [2] (setting [7]) is given as 115%; in data set [2] (setting [8]), 101%; in data set [2] (setting [9]), 112%; in data set [2] (setting [10]) it was 103%; in data set [3] (mouse, 24 h, 10 μM), 117%; in data set [3] (mouse, 24 h, 100 μM) it was 96%. Further, the “viability of the cells as a percentage of the untreated cells” value came to 95% in data set [3] (mouse, 48 h, 10 μM); 108% in data set [3] (mouse, 48 h, 100 μM); 116% in data set [4] (rat, 24 h, 10 μM); 140% in data set [4] (rat, 24 h, 100 μM); 96% in data set [4] (rat, 48 h, 10 μM); 113% in data set [4] (rat, 48 h, 100 μM). This molecule showed an ORACFL in data set [1] of 0.89 ± 0.10 μmol TE/μmol.

`NCC(N)CCC(=O)N1CCN(C(=O)CCn2cccc(O)c2=O)CC1` (stereo not shown) [Compound 37f, 1-(3-(4-(4,5-diaminopentanoyl)piperazin-1-yl)-3-oxopropyl)-3-hydroxypyridin-2(1H)-one]: the “disappearance of the free scavenger to the benefit of adducts with the MGO” value in data set [5] was “almost total disappearance of the free scavenger”. The molecule also gave an ORACFL in data set [1] of 1.96 ± 0.24 μmol TE/μmol.

Consider `Cl.Cl.NCC(N)C(=O)N1CCNCC1` (stereo not shown) [Dap-Pip, reference compound], for which the “viability of the cells as a percentage of the untreated cells” value is recorded as 125% in data set [2] (setting [7]); 113% in data set [2] (setting [8]); 128% in data set [2] (setting [9]); 111% in data set [2] (setting [10]); 123% in data set [3] (bEnd.3, 10 μM, 24 h of treatment); 131% in data set [3] (bEnd.3, 10 μM, 48 h of treatment). Besides, the “viability of the cells as a percentage of the untreated cells” value in data set [3] (bEnd.3, 100 μM, 24 h of treatment) is 103%; in data set [3] (bEnd.3, 100 μM, 48 h of treatment), 142%; in data set [4] (PC12, 10 μM, 24 h of treatment) it was 114%; in data set [4] (PC12, 10 μM, 48 h of treatment), 110%; in data set [4] (PC12, 100 μM, 24 h of treatment), 120%; in data set [4] (PC12, 100 μM, 48 h of treatment), 102%. Further, in data set [1], the “antioxidant capacity (ORACFL), in words” value is on record as “absence of activity”. For the same molecule, the ORACFL in data set [1] came out at 0 μmol TE/μmol. Besides, in data set [6], the anti-radical effect result is “does not show any anti-radical effect”.

`Cc1c(C)c2c(c(C)c1O)CCC(C)(C(=O)O)O2` (stereo not shown) [Trolox, 6-hydroxy-2,5,7,8-tetramethylchroman-2-carboxylic acid, reference compound] yielded an ORACFL in data set [1] of 1 μmol TE/μmol.

(Values after patent US10464920B2, “Vicinal primary diamines associated with metal and/or free radical chelation motifs, and active against carbonyl and oxidative stress, and use thereof” (UNIVERSITE AMIENS PICARDIE JULES VERNE, priority 2015, dated 2019).)
